Experimental data: article PMC6994419, “UDP-N-acetyl-α-D-galactosamine:polypeptide N-acetylgalactosaminyltransferase from the snail Biomphalaria glabrata – structural reflections” (Glycoconjugate Journal, 2019)

Assays:
[1] = biological target: T1, Bge-ppGalNAcT (Biomphalaria glabrata, UniProt S5S833); assay: GalNAc transfer to acceptor peptide, reversed-phase HPLC at […] nm; format: biochemical; conditions: 40 nmol UDP-GalNAc in 20 μl, 10 mM MnCl2, 50 mM MES pH 7.0, 37 °C, 90 min, acceptor peptide 20 μg
T1 construct: without cytoplasmic tail and transmembrane domain (amino acids 1-26 removed); catalytic plus lectin domain

[2] = biological target: T2, ΔppGalNAcT (Biomphalaria glabrata, UniProt S5S833); assay: as above; format: biochemical; conditions: 40 nmol UDP-GalNAc in 20 μl, 10 mM MnCl2, 50 mM MES pH 7.0, 37 °C, 90 min, acceptor peptide 20 μg
T2 construct: catalytic part only: amino acids 1-26 and the lectin domain (477-600) removed; Sf9 insect cells, purified
T2 sequence (S5S833 27-476, stated change not applied): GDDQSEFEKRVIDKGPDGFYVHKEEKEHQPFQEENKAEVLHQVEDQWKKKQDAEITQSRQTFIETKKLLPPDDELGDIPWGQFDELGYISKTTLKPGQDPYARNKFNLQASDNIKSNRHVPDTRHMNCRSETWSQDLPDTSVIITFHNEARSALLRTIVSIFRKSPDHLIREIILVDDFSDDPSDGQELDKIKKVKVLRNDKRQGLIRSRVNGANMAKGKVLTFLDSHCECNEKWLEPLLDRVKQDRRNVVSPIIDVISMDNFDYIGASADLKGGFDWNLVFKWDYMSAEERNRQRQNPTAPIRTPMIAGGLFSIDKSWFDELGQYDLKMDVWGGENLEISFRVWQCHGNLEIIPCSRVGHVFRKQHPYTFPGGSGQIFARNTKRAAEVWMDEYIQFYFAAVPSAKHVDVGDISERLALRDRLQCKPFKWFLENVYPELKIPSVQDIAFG

T1 sequence (S5S833 27-600): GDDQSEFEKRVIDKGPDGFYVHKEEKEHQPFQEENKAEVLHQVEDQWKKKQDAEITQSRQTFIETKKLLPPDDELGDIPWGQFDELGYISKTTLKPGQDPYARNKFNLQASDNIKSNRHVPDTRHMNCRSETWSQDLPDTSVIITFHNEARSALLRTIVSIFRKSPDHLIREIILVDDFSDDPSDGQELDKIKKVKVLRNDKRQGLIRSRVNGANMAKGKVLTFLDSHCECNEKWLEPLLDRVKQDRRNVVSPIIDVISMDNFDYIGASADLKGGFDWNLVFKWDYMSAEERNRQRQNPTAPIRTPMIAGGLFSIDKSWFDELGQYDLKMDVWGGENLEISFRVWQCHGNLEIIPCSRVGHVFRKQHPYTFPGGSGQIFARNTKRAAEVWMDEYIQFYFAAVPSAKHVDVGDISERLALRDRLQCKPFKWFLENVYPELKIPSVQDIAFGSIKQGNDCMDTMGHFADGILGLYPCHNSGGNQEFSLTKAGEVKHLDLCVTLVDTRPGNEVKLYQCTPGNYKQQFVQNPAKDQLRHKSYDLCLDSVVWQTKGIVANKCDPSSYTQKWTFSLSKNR

Compound: O=c1ccn([C@@H]2O[C@H](COP(=O)(O)OP(=O)(O)O)[C@@H](O)[C@H]2O)c(=O)[nH]1 [UDP]
- activity at 0.05-0.75 mM UDP [1]: Only for UDP an inhibition effect was experimentally observed.
- activity at 0.05-0.75 mM UDP [2]: No significant differences between the enzyme expressed with lectin domain and the version without
